According to the supplement of paper PMC6045584:
± gives the standard deviation of the averaged measurements.

Legend:
[1] = compound: CO[C@H]1C[C@@H]2CC[C@@H](C)[C@@](O)(O2)C(=O)C(=O)N2CCCC[C@H]2C(=O)O[C@H]([C@H](C)C[C@@H]2CC[C@@H](OCCO)[C@H](OC)C2)CC(=O)[C@H](C)/C=C(\C)[C@@H](O)[C@@H](OC)C(=O)[C@H](C)C[C@H](C)/C=C/C=C/C=C/1C [EVEROLIMUS]; experiment: surviving fraction relative to DMSO-only wells; higher = less growth inhibition; conditions: exposure time: 5 days
In short: (§1)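 Tumour cell lines were seeded in log phase at 250–500 cells per well into 384-well plates. Starting 24 hours later, inhibitors were present continuously for five days at 0.5, 1, 5, 10, 50, 100, 500 and 1000 nM. Surviving fraction, from CellTiter-Glo luminescence, is normalised to the median of DMSO-only wells. Three screens per line were required, with replicate Pearson r >0.7 and median Z' >0.3 for a line to be kept.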

[2] = compound: O=C(NOCC1CC1)c1ccc(F)c(F)c1Nc1ccc(I)cc1Cl; experiment: as above; conditions: exposure time: 5 days
In short: as §1

Test System	surviving fraction ([1]; 0.5 nM)	surviving fraction ([1]; 1 nM)	surviving fraction ([1]; 5 nM)	surviving fraction ([1]; 10 nM)	surviving fraction ([1]; 50 nM)	surviving fraction ([1]; 100 nM)	surviving fraction ([1]; 500 nM)	surviving fraction ([1]; 1000 nM)	surviving fraction ([2]; 0.5 nM)	surviving fraction ([2]; 1 nM)	surviving fraction ([2]; 5 nM)	surviving fraction ([2]; 10 nM)	surviving fraction ([2]; 50 nM)	surviving fraction ([2]; 100 nM)	surviving fraction ([2]; 500 nM)	surviving fraction ([2]; 1000 nM)
HU09 BONE	0.669 ± 0.016	0.602 ± 0.037	0.513 ± 0.0057	0.512 ± 0.048	0.49 ± 0.011	0.42 ± 0.011	0.382 ± 0.016	0.39 ± 0.023	0.968 ± 0.024	1 ± 0.15	1.06 ± 0.073	1.06 ± 0.11	0.995 ± 0.1	1.03 ± 0.12	0.894 ± 0.044	0.905 ± 0.066
JIMT1 BREAST	0.752 ± 0.021	0.663 ± 0.014	0.571 ± 0.034	0.561 ± 0.022	0.56 ± 0.034	0.55 ± 0.03	0.5 ± 0.016	0.494 ± 0.036	0.957 ± 0.056	0.967 ± 0.039	0.997 ± 0.032	0.997 ± 0.02	0.955 ± 0.013	0.956 ± 0.017	0.8092 ± 0.0039	0.7653 ± 0.0068
JURKAT HAEMATOPOIETIC AND LYMPHOID TISSUE	0.988 ± 0.023	0.917 ± 0.041	0.572 ± 0.0079	0.557 ± 0.033	0.433 ± 0.029	0.396 ± 0.034	0.326 ± 0.021	0.275 ± 0.018	1.03 ± 0.012	1.032 ± 0.0095	1.04 ± 0.016	1.02 ± 0.044	0.98 ± 0.011	1 ± 0.014	1.03 ± 0.013	0.994 ± 0.033
KPD BONE	0.603 ± 0.044	0.529 ± 0.026	0.457 ± 0.016	0.422 ± 0.019	0.408 ± 0.025	0.384 ± 0.017	0.343 ± 0.012	0.338 ± 0.02	1.17 ± 0.41	0.967 ± 0.047	1.032 ± 0.007	0.977 ± 0.037	0.986 ± 0.065	0.96 ± 0.032	0.968 ± 0.041	0.922 ± 0.055
LM7 BONE	0.934 ± 0.053	0.87 ± 0.056	0.803 ± 0.1	0.785 ± 0.12	0.77 ± 0.085	0.752 ± 0.046	0.674 ± 0.087	0.609 ± 0.044	0.983 ± 0.049	1.01 ± 0.041	1.1 ± 0.12	1 ± 0.024	1.02 ± 0.073	0.943 ± 0.1	0.821 ± 0.011	0.853 ± 0.089
MCF7 BREAST	0.673 ± 0.049	0.597 ± 0.058	0.502 ± 0.046	0.495 ± 0.024	0.527 ± 0.011	0.505 ± 0.012	0.504 ± 0.021	0.514 ± 0.024	0.843 ± 0.041	0.87 ± 0.035	0.848 ± 0.02	0.849 ± 0.028	0.874 ± 0.029	0.867 ± 0.045	0.849 ± 0.022	0.841 ± 0.06
MDAMB134 BREAST	0.843	0.789 ± 0.071	0.63 ± 0.069	0.642 ± 0.11	0.616 ± 0.1	0.688 ± 0.11	0.569 ± 0.11	0.573 ± 0.09	0.871 ± 0.27	1.03 ± 0.16	0.933 ± 0.067	0.869 ± 0.075	0.809 ± 0.097	0.732 ± 0.11	0.556 ± 0.044	0.711 ± 0.15
MDAMB157 BREAST	0.696 ± 0.11	0.817 ± 0.043	0.747 ± 0.05	0.692 ± 0.011	0.634 ± 0.05	0.712 ± 0.052	0.598 ± 0.041	0.572 ± 0.095	0.877 ± 0.043	0.86 ± 0.12	0.929 ± 0.1	0.928 ± 0.069	0.85 ± 0.02	0.866 ± 0.037	0.787 ± 0.035	0.664 ± 0.013
MDAMB231 BREAST	0.779 ± 0.021	0.73 ± 0.028	0.621 ± 0.029	0.5901 ± 0.005	0.591 ± 0.022	0.575 ± 0.019	0.541 ± 0.038	0.521 ± 0.038	0.963 ± 0.011	0.994 ± 0.035	1 ± 0.024	1.02 ± 0.032	0.969 ± 0.024	0.912 ± 0.022	0.65 ± 0.039	0.52 ± 0.02
MDAMB361 BREAST	0.739 ± 0.061	0.815 ± 0.098	0.697 ± 0.0076	0.631 ± 0.049	0.62 ± 0.028	0.584 ± 0.0067	0.547 ± 0.015	0.543 ± 0.039	1.06 ± 0.12	0.887 ± 0.067	0.986 ± 0.076	0.973 ± 0.029	0.963 ± 0.083	1.03 ± 0.019	1.05 ± 0.072	0.972 ± 0.12
MDAMB436 BREAST	0.7 ± 0.022	0.655 ± 0.044	0.598 ± 0.027	0.606 ± 0.039	0.577 ± 0.025	0.589 ± 0.046	0.633 ± 0.057	0.558 ± 0.061	0.904 ± 0.065	0.905 ± 0.024	0.932 ± 0.026	0.883 ± 0.029	0.8685 ± 0.0053	0.959 ± 0.085	0.944 ± 0.023	0.78 ± 0.016
MDAMB453 BREAST	0.941 ± 0.11	0.75 ± 0.07	0.461 ± 0.0079	0.369 ± 0.037	0.339 ± 0.035	0.305 ± 0.018	0.301 ± 0.024	0.284 ± 0.011	0.958 ± 0.033	1.02 ± 0.062	1.02 ± 0.072	0.992 ± 0.046	1.03 ± 0.094	1.05 ± 0.028	1.02 ± 0.06	1.06 ± 0.03
MDAMB468 BREAST	0.759 ± 0.076	0.669 ± 0.043	0.599 ± 0.031	0.546 ± 0.045	0.55 ± 0.017	0.601 ± 0.0052	0.551 ± 0.044	0.522 ± 0.066	0.938 ± 0.079	0.983 ± 0.083	1.02 ± 0.029	1 ± 0.11	0.933 ± 0.046	0.998 ± 0.038	0.885 ± 0.029	0.913 ± 0.0098
MFM223 BREAST	0.953 ± 0.069	0.912 ± 0.077	0.73 ± 0.049	0.749 ± 0.082	0.669 ± 0.053	0.638 ± 0.068	0.706 ± 0.076	0.754 ± 0.053	1.09 ± 0.046	1.06 ± 0.088	1.05 ± 0.059	1.07 ± 0.089	1.14 ± 0.037	1.12 ± 0.057	1.012 ± 0.0095	1.04 ± 0.03
MG63 BONE	0.954 ± 0.019	0.8723 ± 0.0081	0.747 ± 0.027	0.6393 ± 0.0057	0.594 ± 0.026	0.57 ± 0.02	0.481 ± 0.021	0.4813 ± 0.0035	0.9313 ± 0.0065	0.969 ± 0.018	0.976 ± 0.016	0.997 ± 0.017	0.935 ± 0.0096	0.957 ± 0.011	0.85 ± 0.018	0.859 ± 0.022
MHM BONE	0.926 ± 0.063	0.864 ± 0.049	0.743 ± 0.057	0.696 ± 0.059	0.664 ± 0.029	0.672 ± 0.019	0.63 ± 0.011	0.638 ± 0.032	0.947 ± 0.024	0.906 ± 0.095	0.992 ± 0.013	1.01 ± 0.015	0.974 ± 0.028	0.971 ± 0.048	0.926 ± 0.022	0.931 ± 0.032
NCIH441 LUNG	1.15 ± 0.031	1.08 ± 0.098	1.183 ± 0.0021	1.04 ± 0.049	0.864 ± 0.097	1.03 ± 0.082	0.933 ± 0.056	0.876 ± 0.076	0.939 ± 0.093	0.968 ± 0.084	0.945 ± 0.026	0.984 ± 0.041	0.909 ± 0.013	0.846 ± 0.031	0.722 ± 0.023	0.757 ± 0.053
NOS1 BONE	0.77 ± 0.073	0.655 ± 0.039	0.607 ± 0.022	0.536 ± 0.048	0.491 ± 0.03	0.461 ± 0.052	0.415 ± 0.019	0.362 ± 0.023	1.15 ± 0.08	1.15 ± 0.075	1.16 ± 0.057	1.16 ± 0.062	0.949 ± 0.065	0.952 ± 0.1	0.863 ± 0.054	0.773 ± 0.016
NY BONE	0.789 ± 0.012	0.766 ± 0.024	0.729 ± 0.01	0.688 ± 0.019	0.692 ± 0.013	0.707 ± 0.015	0.644 ± 0.032	0.6403 ± 0.0042	0.923 ± 0.029	0.9257 ± 0.0055	0.953 ± 0.02	0.975 ± 0.023	0.97 ± 0.026	0.993 ± 0.028	0.93 ± 0.024	0.921 ± 0.037
OS25HAL BONE	0.863 ± 0.044	0.846 ± 0.0091	0.679 ± 0.029	0.622 ± 0.042	0.598 ± 0.014	0.581 ± 0.039	0.546 ± 0.034	0.52 ± 0.022	0.951 ± 0.024	0.964 ± 0.02	0.931 ± 0.033	0.971 ± 0.025	0.955 ± 0.015	0.989 ± 0.012	0.943 ± 0.012	0.954 ± 0.024
